Test results from ChEMBL document CHEMBL3045696, “CsFCelite catalyzed facile N-alkylation of 2(3H)-benzoxazolones and antimicrobial properties of 2-substituted benzoxazole and 3-substituted-2(3H)-benzoxazolone derivatives” (2011).
Converted amounts (≈) assume the structure as drawn. The source made the active and inactive calls. The rule behind the calls is not given here.

Legend:
Assay type in all cases: functional
[1] = tested on: Candida albicans; experiment: Antimicrobial activity against Candida albicans MTCC 227 at 100 ug after 48 hr by agar well diffusion method; conditions: for zone of inhibition at 100 µg/disc: MTCC 227, 48 h, read-out: IZ
[2] = tested on: Saccharomyces cerevisiae; experiment: Antimicrobial activity against Saccharomyces cerevisiae MTCC 36 at 100 ug after 48 hr by agar well diffusion method; conditions: for zone of inhibition at 100 µg/disc: MTCC 36, 48 h, read-out: IZ
[3] = tested on: Escherichia coli; experiment: Antimicrobial activity against Escherichia coli MTCC 443 by broth dilution method
[4] = tested on: Pseudomonas aeruginosa; experiment: Antimicrobial activity against Pseudomonas aeruginosa MTCC 741 by broth dilution method
[5] = tested on: Rhizopus arrhizus; experiment: Antimicrobial activity against Rhizopus oryzae MTCC 262 at 100 ug after 48 hr by agar well diffusion method; conditions: for zone of inhibition at 100 µg/disc: MTCC 262, 48 h, read-out: IZ
[6] = tested on: Staphylococcus epidermidis; experiment: Antimicrobial activity against Staphylococcus epidermidis by broth dilution method
[7] = tested on: Candida albicans; experiment: Antimicrobial activity against Candida albicans MTCC 227 at 150 ug after 48 hr by agar well diffusion method; conditions: for zone of inhibition at 150 µg/disc: MTCC 227, 48 h, read-out: IZ
[8] = tested on: Bacillus subtilis; experiment: Antimicrobial activity against Bacillus subtilis MTCC 441 by broth dilution method
[9] = tested on: Klebsiella pneumoniae; experiment: Antimicrobial activity against Klebsiella pneumoniae MTCC 618 by broth dilution method
[10] = tested on: Staphylococcus aureus; experiment: Antimicrobial activity against Staphylococcus aureus MTCC 96 by broth dilution method
[11] = tested on: Aspergillus niger; experiment: Antimicrobial activity against Aspergillus niger MTCC 282 at 100 ug after 48 hr by agar well diffusion method; conditions: for zone of inhibition at 100 µg/disc: MTCC 282, 48 h, read-out: IZ
[12] = tested on: Aspergillus niger; experiment: Antimicrobial activity against Aspergillus niger MTCC 282 at 150 ug after 48 hr by agar well diffusion method; conditions: for zone of inhibition at 150 µg/disc: MTCC 282, 48 h, read-out: IZ
[13] = tested on: Rhizopus arrhizus; experiment: Antimicrobial activity against Rhizopus oryzae MTCC 262 at 150 ug after 48 hr by agar well diffusion method; conditions: for zone of inhibition at 150 µg/disc: MTCC 262, 48 h, read-out: IZ
[14] = tested on: Saccharomyces cerevisiae; experiment: Antimicrobial activity against Saccharomyces cerevisiae MTCC 36 at 150 ug after 48 hr by agar well diffusion method; conditions: for zone of inhibition at 150 µg/disc: MTCC 36, 48 h, read-out: IZ

| MIC [3] [mg/L] | MIC [4] [mg/L] | MIC [6] [mg/L] | MIC [8] [mg/L] | MIC [9] [mg/L] | MIC [10] [mg/L] | SMILES | Activity [1] | Activity [2] | zone of inhibition at 100 µg/disc [5] [mm] | Activity [7] | Activity [11] | Activity [12] | zone of inhibition at 150 µg/disc [13] [mm] | Activity [14] | Activity [5] | Activity [13] | zone of inhibition at 150 µg/disc [7] [mm] | further results |
| --- | --- | --- | --- | --- | --- | --- | --- | --- | --- | --- | --- | --- | --- | --- | --- | --- | --- | --- |
| 150 (≈ 533 µM) | 75 (≈ 267 µM) | 150 (≈ 533 µM) | 150 (≈ 533 µM) | 75 (≈ 267 µM) | 150 (≈ 533 µM) | c1cnc(N2CCN(c3nc4ccccc4o3)CC2)nc1 | inactive | inactive | 8 | inactive | inactive | inactive | 10 | inactive |  |  |  |  |
| 150 (≈ 403 µM) | 150 (≈ 403 µM) | 150 (≈ 403 µM) | 150 (≈ 403 µM) | 150 (≈ 403 µM) | 150 (≈ 403 µM) | O=c1oc2ccc(Cl)cc2n1CCCN1CCN(c2ccccc2)CC1 | inactive | inactive |  | inactive | inactive | inactive |  | inactive | inactive | inactive |  |  |
| 150 (≈ 610 µM) | 150 (≈ 610 µM) | 150 (≈ 610 µM) | 150 (≈ 610 µM) | 150 (≈ 610 µM) | 150 (≈ 610 µM) | O=c1oc2ccc(Cl)cc2n1CCCCl |  |  | 11 |  |  |  | 15 |  |  |  | 19 | zone of inhibition at 100 µg/disc [1]: 14 mm; zone of inhibition at 100 µg/disc [2]: 12 mm; zone of inhibition at 100 µg/disc [11]: 13 mm; zone of inhibition at 150 µg/disc [12]: 17 mm; zone of inhibition at 150 µg/disc [14]: 15 mm |
| 150 (≈ 535 µM) | 75 (≈ 268 µM) | 150 (≈ 535 µM) | 150 (≈ 535 µM) | 150 (≈ 535 µM) | 150 (≈ 535 µM) | c1ccc(N2CCN(c3nc4ccccc4o3)CC2)nc1 |  | inactive |  |  | inactive | inactive |  | inactive | inactive | inactive | 10 | zone of inhibition at 100 µg/disc [1]: 8 mm |
| 75 (≈ 345 µM) | 75 (≈ 345 µM) | 150 (≈ 690 µM) | 150 (≈ 690 µM) | 75 (≈ 345 µM) | 150 (≈ 690 µM) | c1ccc2oc(N3CCCNCC3)nc2c1 | inactive | inactive | 8 | inactive | inactive | inactive | 10 | inactive |  |  |  |  |
| 75 (≈ 268 µM) | 75 (≈ 268 µM) | 150 (≈ 537 µM) | 150 (≈ 537 µM) | 150 (≈ 537 µM) | 150 (≈ 537 µM) | c1ccc(N2CCN(c3nc4ccccc4o3)CC2)cc1 | inactive | inactive |  |  | inactive | inactive |  | inactive | inactive | inactive | 9 |  |
| 150 (≈ 389 µM) | 75 (≈ 194 µM) | 75 (≈ 194 µM) | 150 (≈ 389 µM) | 150 (≈ 389 µM) | 150 (≈ 389 µM) | O=c1oc2ccc(Cl)cc2n1CCCN1CCN(Cc2ccccc2)CC1 | inactive | inactive |  |  |  |  |  | inactive | inactive | inactive | 9 | zone of inhibition at 100 µg/disc [11]: 7 mm; zone of inhibition at 150 µg/disc [12]: 9 mm |
| 150 (≈ 401 µM) | 150 (≈ 401 µM) | 150 (≈ 401 µM) | 150 (≈ 401 µM) | 150 (≈ 401 µM) | 150 (≈ 401 µM) | O=c1oc2ccc(Cl)cc2n1CCCN1CCN(c2ncccn2)CC1 | inactive | inactive |  | inactive | inactive | inactive |  | inactive | inactive | inactive |  |  |
| 150 (≈ 402 µM) | 75 (≈ 201 µM) | 150 (≈ 402 µM) | 150 (≈ 402 µM) | 150 (≈ 402 µM) | 150 (≈ 402 µM) | O=c1oc2ccc(Cl)cc2n1CCCN1CCN(c2ccccn2)CC1 | inactive | inactive |  | inactive | inactive | inactive |  | inactive | inactive | inactive |  |  |

The remaining lines, values behind:

| SMILES | MIC [3] [mg/L] | MIC [4] [mg/L] | MIC [6] [mg/L] | MIC [8] [mg/L] | MIC [9] [mg/L] | MIC [10] [mg/L] | Activity [1] | Activity [2] | zone of inhibition at 100 µg/disc [5] [mm] | Activity [7] | Activity [11] | Activity [12] | zone of inhibition at 150 µg/disc [13] [mm] | Activity [14] | Activity [5] | Activity [13] | zone of inhibition at 150 µg/disc [7] [mm] | further results |
| --- | --- | --- | --- | --- | --- | --- | --- | --- | --- | --- | --- | --- | --- | --- | --- | --- | --- | --- |
| CN1CCN(c2nc3ccccc3o2)CC1 | 150 (≈ 690 µM) | 150 (≈ 690 µM) | 75 (≈ 345 µM) | 150 (≈ 690 µM) | 150 (≈ 690 µM) | 150 (≈ 690 µM) | inactive | inactive |  | inactive | inactive | inactive |  | inactive | inactive | inactive |  |  |
| CN[C@@H]1[C@H](O[C@H]2[C@H](O[C@H]3[C@H](O)[C@@H](O)[C@H](N=C(N)N)[C@@H](O)[C@@H]3N=C(N)N)O[C@@H](C)[C@]2(O)C=O)O[C@@H](CO)[C@H](O)[C@H]1O [STREPTOMYCIN] | 6.25 (≈ 10.7 µM) | 1.56 (≈ 2.69 µM) | 3.12 (≈ 5.37 µM) | 6.25 (≈ 10.7 µM) | 3.12 (≈ 5.37 µM) | 6.25 (≈ 10.7 µM) |  |  |  |  |  |  |  |  |  |  |  |  |
| CCN1CCN(c2nc3ccccc3o2)CC1 | 150 (≈ 649 µM) | 150 (≈ 649 µM) | 75 (≈ 324 µM) | 150 (≈ 649 µM) | 75 (≈ 324 µM) | 150 (≈ 649 µM) |  |  |  |  |  |  |  |  | inactive | inactive | 10 | zone of inhibition at 100 µg/disc [1]: 8 mm; zone of inhibition at 100 µg/disc [2]: 7 mm; zone of inhibition at 100 µg/disc [11]: 9 mm; zone of inhibition at 150 µg/disc [12]: 12 mm; zone of inhibition at 150 µg/disc [14]: 9 mm |
| C=CCCn1c(=O)oc2ccc(Cl)cc21 | 150 (≈ 671 µM) | 150 (≈ 671 µM) | 150 (≈ 671 µM) | 150 (≈ 671 µM) | 37.5 (≈ 168 µM) | 150 (≈ 671 µM) | inactive | inactive | 9 | inactive | inactive | inactive | 13 | inactive |  |  |  |  |
| O=c1oc2ccc(Cl)cc2n1Cc1ccccc1 | 150 (≈ 578 µM) | 150 (≈ 578 µM) | 75 (≈ 289 µM) | 150 (≈ 578 µM) | 75 (≈ 289 µM) | 75 (≈ 289 µM) | inactive | inactive |  | inactive | inactive | inactive |  | inactive | inactive | inactive |  |  |
| C#CCn1c(=O)oc2ccc(Cl)cc21 | 37.5 (≈ 181 µM) | 37.5 (≈ 181 µM) | 75 (≈ 361 µM) | 75 (≈ 361 µM) | 75 (≈ 361 µM) | 75 (≈ 361 µM) |  |  | 15 |  |  |  | 19 |  |  |  | 11 | zone of inhibition at 100 µg/disc [1]: 8 mm; zone of inhibition at 100 µg/disc [2]: 14 mm; zone of inhibition at 100 µg/disc [11]: 15 mm; zone of inhibition at 150 µg/disc [12]: 18 mm; zone of inhibition at 150 µg/disc [14]: 18 mm |
| CC1(C)S[C@@H]2[C@H](NC(=O)Cc3ccccc3)C(=O)N2[C@H]1C(=O)O [PENICILLIN G] | 12.5 (≈ 37.4 µM) | 12.5 (≈ 37.4 µM) | 3.12 (≈ 9.35 µM) | 1.56 (≈ 4.67 µM) | 6.25 (≈ 18.7 µM) | 1.56 (≈ 4.67 µM) |  |  |  |  |  |  |  |  |  |  |  |  |
